According to US8524705B2, “2-oxo-2-(2-phenyl-5,6,7,8-tetrahydro-indolizin-3-yl)-acetamide derivatives and related compounds as antifungal agents” (F2G Limited British Body Corporate, priority 2007, dated 2013):
In brackets after ≈: the same amount, converted by molar mass.

Key:
Assay type in all cases: cell-based
Conditions in all cases: banded into grades
[1] = test system: Aspergillus fumigatus AF210; assay: Measurement of Minimum Inhibitory Concentrations (MICs), A. fumigatus 210
Procedure: (§1) Between 1 and 5 mgs of compound were accurately weighed out into a sterile Eppendorf tube. The compound was dissolved in DMSO to give a solution containing 5 mg/mL. Tubes were stored at −20° C. until required. On the day of testing thawed solutions were vortex mixed to ensure homogeneity. 30 μL of solution was removed and added to 570 μL of sterile water in a separate sterile Eppendorf. The thoroughly mixed solution was used to prepare a series of doubling dilutions in water, in a deep well plate. […] replicate plates were prepared using a Minitrak by aspirating […] from each well into eleven clear polystyrene 96 well plates. Spores of Aspergillus spp. (Aspergillus fumigatus [two strains], Aspergillus terreus [two strains], Aspergillus niger and Aspergillus flavus) were harvested from cultures grown on Sabarauds agar for 5 days, and resuspended in PBS/Tween 80 to approx 1×10^7 cfu/mL. Each organism suspension was diluted in YAG medium (1% glucose, 1% ammonium chloride and 0.5% yeast extract) to 0.5-2×10^4 cfu/mL. 80 μL of an organism suspension was added to each well of the plate containing drug dilutions. This produced MIC plates with a drug range 50-0.05 mg/L and organism inocula of 1−2×10^4 cfu/mL for Aspergillus spp. All plates were incubated for 24 hrs at 35° C. Growth was assessed by monitoring the optical density at 485 nm for each well. The MIC of a compound is the lowest drug concentration that inhibits growth of an organism by >70% compared with a drug free control. MICs are recorded as mg/L. In cases where the MIC of an organism is >=0.05 mg/L the MIC is repeated using a concentration range of 0.5-0.0005 mg/L. Other growth media can be used for susceptibility testing, and the activity of the described compounds was also assessed in RPMI medium containing 2% glucose, and 0.135M MOPS buffer. MIC tests in YAG medium have more clear-cut endpoints and have slightly lower MICs than those performed in RPMI medium. The following organisms were tested: Aspergillus flavus, Aspergillus fumigatus AF293 and AF210, Aspergillus niger and Aspergillus terreus AT4 and AT49.

Aspergillus flavus = assay: Measurement of Minimum Inhibitory Concentrations (MICs), A. flavus
Procedure: as §1

Aspergillus terreus AT49 = assay: Measurement of Minimum Inhibitory Concentrations (MICs), A. terreus 49
Procedure: as §1

Aspergillus niger = assay: Measurement of Minimum Inhibitory Concentrations (MICs), A. niger
Procedure: as §1

[2] = test system: Aspergillus fumigatus AF293; assay: Measurement of Minimum Inhibitory Concentrations (MICs), A. fumigatus
Procedure: as §1

Aspergillus terreus AT4 = assay: Measurement of Minimum Inhibitory Concentrations (MICs), A. terreus
Procedure: as §1

[3] = RPMI medium containing 2% glucose, 0.135M MOPS buffer
[4] = YAG medium, 24 hrs at 35° C., >70% growth inhibition

| Structure (SMILES) | MIC [1, 3] [µg/mL] | MIC [1, 4] [µg/mL] | MIC (Aspergillus flavus; [3]) [µg/mL] | MIC (Aspergillus flavus; [4]) [µg/mL] | MIC (Aspergillus terreus AT49; [3]) [µg/mL] | MIC (Aspergillus terreus AT49; [4]) [µg/mL] | MIC (Aspergillus niger; [3]) [µg/mL] | MIC (Aspergillus niger; [4]) [µg/mL] | MIC [2, 3] [µg/mL] | MIC [2, 4] [µg/mL] | MIC (Aspergillus terreus AT4; [3]) [µg/mL] | MIC (Aspergillus terreus AT4; [4]) [µg/mL] |
| --- | --- | --- | --- | --- | --- | --- | --- | --- | --- | --- | --- | --- |
| O=C(Nc1cccc2ccccc12)C(=O)c1c(-c2ccccc2)cc2n1CCCC2 [Example 28, N-Naphthalen-1-yl-2-oxo-2-(2-phenyl-5,6,7,8-tetrahydro-indolizin-3-yl)-acetamide] | > 10 | < 1 | < 1 | < 1 | < 1 | < 1 | < 1 | < 1 | > 10 | < 1 | < 1 | < 1 |
| O=C(Nc1ccc2c(c1)OCC2)C(=O)c1c(-c2ccccc2)cc2n1CCCC2 [Example 32, N-(2,3-Dihydro-benzofuran-6-yl)-2-oxo-2-(2-phenyl-5,6,7,8-tetrahydro-indolizin-3-yl)-acetamide] | 1 to 10 (≈ 2.59 to 25.9 µM) | < 1 | 1 to 10 (≈ 2.59 to 25.9 µM) | < 1 | < 1 | < 1 | < 1 | < 1 | 1 to 10 (≈ 2.59 to 25.9 µM) | < 1 | < 1 | < 1 |

The remaining lines, values ahead:

| MIC [1, 3] [µg/mL] | MIC [1, 4] [µg/mL] | MIC (Aspergillus flavus; [3]) [µg/mL] | MIC (Aspergillus flavus; [4]) [µg/mL] | MIC (Aspergillus terreus AT49; [3]) [µg/mL] | MIC (Aspergillus terreus AT49; [4]) [µg/mL] | MIC (Aspergillus niger; [3]) [µg/mL] | MIC (Aspergillus niger; [4]) [µg/mL] | MIC [2, 3] [µg/mL] | MIC [2, 4] [µg/mL] | MIC (Aspergillus terreus AT4; [3]) [µg/mL] | MIC (Aspergillus terreus AT4; [4]) [µg/mL] | Structure (SMILES) |
| --- | --- | --- | --- | --- | --- | --- | --- | --- | --- | --- | --- | --- |
| > 10 | 1 to 10 (≈ 1.58 to 15.8 µM) | > 10 | > 10 | 1 to 10 (≈ 1.58 to 15.8 µM) | 1 to 10 (≈ 1.58 to 15.8 µM) | 1 to 10 (≈ 1.58 to 15.8 µM) | > 10 | > 10 | > 10 | > 10 | 1 to 10 (≈ 1.58 to 15.8 µM) | Cc1cc(C)nc(N2CCN(c3ccc(NC(=O)C(=O)c4c(-c5ccccc5)cc5n4CCCC5)cc3COCCN(C)C)CC2)c1 [Example 29, N-{3-(2-Dimethylamino-ethoxymethyl)-4-[4-(4,6-dimethyl-pyridin-2-yl)-piperazin-1-yl]-phenyl}-2-oxo-2-(2-phenyl-5,6,7,8-tetrahydro-indolizin-3-yl)-acetamide] |
| < 1 | < 1 | < 1 | < 1 | < 1 | < 1 | < 1 | < 1 | < 1 | < 1 | < 1 | < 1 | Cc1cc(C)nc(N2CCN(c3ccc(NC(=O)C(=O)c4c(-c5ccccc5)cc5n4CCCC5)c(Cl)c3)CC2)c1 [Example 30, N-{2-Chloro-4-[4-(4,6-dimethyl-pyridin-2-yl)-piperazin-1-yl]-phenyl}-2-oxo-2-(2-phenyl-5,6,7,8-tetrahydro-indolizin-3-yl)-acetamide] |
| < 1 | < 1 | < 1 | < 1 | < 1 | < 1 | < 1 | < 1 | < 1 | < 1 | < 1 | < 1 | Cc1cc(C)nc(N2CCN(c3ccc(NC(=O)C(=O)c4c(-c5ccccc5)cc5n4CCCC5)cc3O)CC2)c1 [Example 31, N-{4-[4-(4,6-Dimethyl-pyridin-2-yl)-piperazin-1-yl]-3-hydroxy-phenyl}-2-oxo-2-(2-phenyl-5,6,7,8-tetrahydro-indolizin-3-yl)-acetamide] |
